Measurements taken from the supplement of paper PMC10307832.

Assays:
Experiment in all cases: relative viability (nuclei count vs DMSO), 5 days (fraction); higher = more cells survive
BI-2536 + OSI-027 = compound: CC[C@@H]1C(=O)N(C)c2cnc(Nc3ccc(C(=O)NC4CCN(C)CC4)cc3OC)nc2N1C1CCCC1 [BI-2536] + COc1cccc2cc(-c3nc([C@H]4CC[C@H](C(=O)O)CC4)n4ncnc(N)c34)[nH]c12 [OSI-027] (partner 0.5 µM)
Outline: (§1)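 Medians of duplicate plates are given as relative viability. That measure is the nuclei count in treated wells divided by the count in vehicle wells. Counts were taken on 4× images of lung cancer cell lines in 1536-well plates, 5 days after pin-tool dosing the day after seeding with one drug alone or a fixed anchor-drug dose plus five library-drug doses (not always all listed) in √10 steps.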

[1] = compound: CC1CC(=O)N(C2=CN=C(N=C2N1C3CCCC3)NC4=C(C=C(C=C4)C(=O)NC5CCN(CC5)C)OC)C [NPK76-II-72-1] + CS(=O)(=O)CCNCc1ccc(-c2ccc3ncnc(Nc4ccc(OCc5cccc(F)c5)c(Cl)c4)c3c2)o1 [Lapatinib] (partner 2 µM)
Outline: as §1

[2] = compound: CC1CC(=O)N(C2=CN=C(N=C2N1C3CCCC3)NC4=C(C=C(C=C4)C(=O)NC5CCN(CC5)C)OC)C [NPK76-II-72-1] + COc1cc2c(Oc3ccc(NC(=O)C4(C(=O)Nc5ccc(F)cc5)CC4)cc3F)ccnc2cc1OCCCN1CCOCC1 [Foretinib] (partner 0.25 µM)
Outline: as §1

BI-2536 + AZD7762 = compound: CC[C@@H]1C(=O)N(C)c2cnc(Nc3ccc(C(=O)NC4CCN(C)CC4)cc3OC)nc2N1C1CCCC1 [BI-2536] + NC(=O)Nc1cc(-c2cccc(F)c2)sc1C(=O)N[C@H]1CCCNC1 [AZD7762] (partner 0.2 µM)
Outline: as §1

| Cell Line | relative viability (BI-2536 + OSI-027; first compound 0.01 µM) | relative viability (BI-2536 + OSI-027; first compound 0.03162 µM) | relative viability (BI-2536 + OSI-027; first compound 0.1 µM) | relative viability (BI-2536 + OSI-027; first compound 0.3162 µM) | relative viability (BI-2536 + OSI-027; first compound 1 µM) | relative viability ([1]; first compound 0.01 µM) | relative viability ([1]; first compound 0.03162 µM) | relative viability ([1]; first compound 0.1 µM) | relative viability ([1]; first compound 0.3162 µM) | relative viability ([1]; first compound 1 µM) | relative viability ([2]; first compound 0.01 µM) | relative viability ([2]; first compound 0.03162 µM) | relative viability ([2]; first compound 0.1 µM) | relative viability ([2]; first compound 0.3162 µM) | relative viability ([2]; first compound 1 µM) | relative viability (BI-2536 + AZD7762; first compound 0.01 µM) | relative viability (BI-2536 + AZD7762; first compound 0.03162 µM) | relative viability (BI-2536 + AZD7762; first compound 0.1 µM) | relative viability (BI-2536 + AZD7762; first compound 0.3162 µM) | relative viability (BI-2536 + AZD7762; first compound 1 µM) |
| --- | --- | --- | --- | --- | --- | --- | --- | --- | --- | --- | --- | --- | --- | --- | --- | --- | --- | --- | --- | --- |
| NCI-H1944 | 0.418 | 0.443 | 0.291 | 0.134 | 0.148 | 0.81 | 0.808 | 0.904 | 0.825 | 0.71 | 0.9 | 0.936 | 0.899 | 0.808 | 0.992 | 0.476 | 0.611 | 0.269 | 0.12 | 0.13 |
| NCI-H1975 | 0.628 | 0.623 | 0.515 | 0.125 | 0.107 | 0.813 | 0.878 | 0.928 | 0.886 | 0.955 | 1.01 | 0.981 | 0.826 | 0.929 | 0.943 | 0.726 | 0.568 | 0.639 | 0.236 | 0.177 |
| NCI-H1993 | 0.521 | 0.481 | 0.519 | 0.484 | 0.453 | 0.729 | 0.92 | 0.906 | 0.822 | 0.788 | 0.801 | 0.791 | 0.868 | 0.604 | 0.808 | 0.734 | 0.668 | 0.407 | 0.53 | 0.348 |
| NCI-H2085 | 0.833 | 0.602 | 0.282 | 0.153 | 0.272 | 0.748 | 0.735 | 0.763 | 0.714 | 0.78 | 0.792 | 0.923 | 0.902 | 0.781 | 1.15 | 1.03 | 0.963 | 0.737 | 0.217 | 0.27 |
| NCI-H2087 | 0.564 | 0.541 | 0.186 | 0.101 | 0.0808 | 1.01 | 0.999 | 0.987 | 0.983 | 1.05 | 1.04 | 1.06 | 1.09 | 1.12 | 1.32 | 1.26 | 1.45 | 1.23 | 0.111 | 0.114 |
| NCI-H2126 | 0.832 | 0.641 | 0.472 | 0.276 | 0.218 | 0.686 | 0.806 | 0.755 | 0.733 | 0.823 | 1.47 | 1.23 | 0.916 | 1.14 | 1.17 | 1.01 | 1.09 | 0.855 | 0.428 | 0.223 |
| NCI-H2170 | 0.762 | 0.757 | 0.285 | 0.172 | 0.209 | 0.267 | 0.286 | 0.257 |  | 0.268 | 0.909 | 0.975 | 1.01 | 0.885 | 1.06 | 0.854 | 0.83 | 0.184 | 0.146 | 0.2 |
| NCI-H2347 |  | 0.464 | 0.346 | 0.285 | 0.276 | 0.95 | 1.06 | 0.857 | 0.717 | 1.08 | 0.844 | 1.1 | 0.935 | 0.424 | 0.917 | 0.647 | 0.643 | 0.73 | 0.545 | 0.325 |
| NCI-H2405 | 0.609 | 0.64 | 0.481 | 0.163 | 0.312 | 1.13 | 1.11 | 1.09 | 1.04 | 1.09 | 1.05 | 1.08 | 0.999 | 1.03 | 1.17 | 0.698 | 0.624 | 0.269 | 0.303 | 0.289 |
| NCI-H3122 | 0.944 | 0.16 | 0.13 | 0.17 | 0.213 | 1.02 | 1.03 | 0.966 | 1.1 | 1.04 | 0.93 | 1.01 | 0.902 | 0.866 | 0.958 | 0.939 | 1 | 0.204 | 0.139 | 0.117 |
| PC-3 [JPC-3] | 0.828 | 0.581 | 0.333 | 0.179 | 0.16 | 0.479 | 0.453 | 0.448 | 0.463 | 0.439 | 1.04 | 1.06 | 0.96 | 0.952 | 1.12 | 0.878 | 0.76 | 0.321 | 0.216 | 0.197 |
| PC-14 | 0.906 | 0.546 | 0.111 | 0.032 | 0.0346 | 0.321 | 0.269 | 0.28 | 0.301 | 0.338 | 0.936 | 1.1 | 0.894 | 0.928 | 1.01 | 0.41 | 0.395 | 0.32 | 0.0493 | 0.0531 |
| RERF-LC-KJ | 0.64 | 0.361 | 0.184 | 0.188 | 0.198 | 0.818 | 0.869 | 0.841 | 0.818 | 0.979 | 0.768 | 0.899 | 0.894 | 0.808 | 0.884 | 0.943 | 0.926 | 0.808 | 0.142 | 0.174 |
